Assay results published in PubChem BioAssay AID248 (DTP/NCI, 2004).
Where “and” joins values, the source holds several entries; their conditions need not be identical. Identical values can stand only once. Toxic doses and inconclusive results are not listed. Rule as the data show it: active = T/C of 150% or more; inactive = T/C below 125%.

Test system: L1210 leukemia ip in BDF1 mice, survival T/C
Assay: NCI In Vivo Anticancer Drug Screen. Data for tumor model L1210 Leukemia (intraperitoneal) in B6D2F1 (BDF1) mice
Settings: endpoint: mean survival time, higher = longer survival
How it was run: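 In this screen, tumor-bearing mice given compound are compared to those given vehicle, and their survival values are reported as a treated-to-control quotient.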

[1] = dose: 100.0 mg/kg/injection, schedule: Q01DX009 (ip), vehicle: saline
[2] = dose: 400.0 mg/kg/injection, schedule: Q01DX009 (ip), vehicle: saline
[3] = dose: 100.0 mg/kg/injection, schedule: Q01DX001 (ip), vehicle: carboxymethylcellulose (CMC)
[4] = dose: 200.0 mg/kg/injection, schedule: Q01DX001 (ip), vehicle: carboxymethylcellulose (CMC)
[5] = dose: 400.0 mg/kg/injection, schedule: Q01DX001 (ip), vehicle: carboxymethylcellulose (CMC)
[6] = dose: 100.0 mg/kg/injection, schedule: Q01DX009 (ip), vehicle: Klucel (hydroxypropylcellulose) (HPC)
[7] = dose: 200.0 mg/kg/injection, schedule: Q01DX009 (ip), vehicle: Klucel (hydroxypropylcellulose) (HPC)
[8] = dose: 400.0 mg/kg/injection, schedule: Q01DX009 (ip), vehicle: Klucel (hydroxypropylcellulose) (HPC)
[9] = dose: 100.0 mg/kg/injection, schedule: Q04DX003 (ip), vehicle: saline
[10] = dose: 200.0 mg/kg/injection, schedule: Q04DX003 (ip), vehicle: saline
[11] = dose: 400.0 mg/kg/injection, schedule: Q04DX003 (ip), vehicle: saline
[12] = dose: 100.0 mg/kg/injection, schedule: Q04DX003 (ip), vehicle: Klucel (hydroxypropylcellulose) (HPC)
[13] = dose: 200.0 mg/kg/injection, schedule: Q04DX003 (ip), vehicle: Klucel (hydroxypropylcellulose) (HPC)
[14] = dose: 400.0 mg/kg/injection, schedule: Q04DX003 (ip), vehicle: Klucel (hydroxypropylcellulose) (HPC)
[15] = dose: 100.0 mg/kg/injection, schedule: Q04DX003 (ip), vehicle: saline with Tween-80
[16] = dose: 200.0 mg/kg/injection, schedule: Q04DX003 (ip), vehicle: saline with Tween-80
[17] = dose: 400.0 mg/kg/injection, schedule: Q04DX003 (ip), vehicle: saline with Tween-80
[18] = dose: 100.0 mg/kg/injection, schedule: Q04DX002 (ip), vehicle: Klucel (hydroxypropylcellulose) (HPC)
[19] = dose: 200.0 mg/kg/injection, schedule: Q04DX002 (ip), vehicle: Klucel (hydroxypropylcellulose) (HPC)
[20] = dose: 400.0 mg/kg/injection, schedule: Q04DX002 (ip), vehicle: Klucel (hydroxypropylcellulose) (HPC)
[21] = dose: 12.5 mg/kg/injection, schedule: Q04DX003 (ip), vehicle: saline with Tween-80
[22] = dose: 25.0 mg/kg/injection, schedule: Q04DX003 (ip), vehicle: saline with Tween-80
[23] = dose: 200.0 mg/kg/injection, schedule: Q01DX009 (ip), vehicle: saline

Measured: T/C

c1ccc2c(c1)C1CC(N3CCCCC3)C2c2ccccc21 (centres undefined)
inactive: [1] 102 % of control | dose: 100.0 mg/kg/injection, schedule: Q04DX003 (ip), vehicle: alcohol 95 % of control | dose: 200.0 mg/kg/injection, schedule: Q04DX003 (ip), vehicle: alcohol 95 % of control | [2] 100 % of control | dose: 400.0 mg/kg/injection, schedule: Q04DX003 (ip), vehicle: alcohol 93 % of control

CCCCCCOc1ccc(/C=N\N=C\c2ccc(OCCCCCC)cc2)cc1
inactive: dose: 100.0 mg/kg/injection, schedule: Q01DX009 (ip), vehicle: saline with Tween-80 92 % of control | dose: 200.0 mg/kg/injection, schedule: Q01DX009 (ip), vehicle: saline with Tween-80 89 % of control | dose: 400.0 mg/kg/injection, schedule: Q01DX009 (ip), vehicle: saline with Tween-80 91 % of control

COc1cccc(/C=C(\S)C(=O)O)c1O
inactive: [3] 86 % of control | [4] 89 % of control | [5] 89 % of control

Cc1cc(O)ccc1C1=NCC(C)(C)S1
inactive: dose: 100.0 mg/kg/injection, schedule: Q04DX002 (ip), vehicle: saline 93 % of control | dose: 200.0 mg/kg/injection, schedule: Q04DX002 (ip), vehicle: saline 100 % of control | dose: 400.0 mg/kg/injection, schedule: Q04DX002 (ip), vehicle: saline 103 % of control

COc1c2c(c(OC)c3c(=O)c4ccccc4[nH]c13)OCO2
inactive: dose: 62.5 mg/kg/injection, schedule: Q01DX001 (ip), vehicle: carboxymethylcellulose (CMC) 100 % of control | dose: 125.0 mg/kg/injection, schedule: Q01DX001 (ip), vehicle: carboxymethylcellulose (CMC) 97 % of control | dose: 250.0 mg/kg/injection, schedule: Q01DX001 (ip), vehicle: carboxymethylcellulose (CMC) 105 % of control | dose: 500.0 mg/kg/injection, schedule: Q01DX001 (ip), vehicle: carboxymethylcellulose (CMC) 97 % of control

COc1ccc(NC(=O)NC(C)(C)C)c(OC)c1
inactive: [6] 100 % of control | [7] 100 % of control | [8] 98 % of control

C[N+]1(C)C2CCCC1CC(=O)NC2 (centres undefined)
inactive: dose: 75.0 mg/kg/injection, schedule: Q01DX001 (ip), vehicle: saline 107 % of control | dose: 150.0 mg/kg/injection, schedule: Q01DX001 (ip), vehicle: saline 104 % of control | dose: 300.0 mg/kg/injection, schedule: Q01DX001 (ip), vehicle: saline 112 % of control

Oc1c(Cl)cc(C(c2cc(Cl)c(O)c(Cl)c2)C(c2cc(Cl)c(O)c(Cl)c2)c2cc(Cl)c(O)c(Cl)c2)cc1Cl
inactive: [9] 101 % of control | [10] 96 % of control | [11] 103 % of control

CCOC(=O)c1cnc(SC)nc1Nc1cccc([N+](=O)[O-])c1
inactive: [6] 110 % of control | [12] 97 % of control | [7] 97 % of control | [13] 98 % of control | [8] 95 % of control | [14] 95 % of control

Nc1ccc(S(=O)(=O)c2ccc(NCCc3ccccn3)cc2)cc1
inactive: [15] 97 % of control | [16] 105 % of control | [17] 100 % of control

OCCCCc1nccc2c1[nH]c1ccccc12
inactive: dose: 25.0 mg/kg/injection, schedule: Q01DX009 (ip), vehicle: saline 93 % of control | dose: 50.0 mg/kg/injection, schedule: Q01DX009 (ip), vehicle: saline 88 % of control | [3] 86 % of control | [4] 93 % of control | [5] 98 % of control

NCCCCCCCCCCC(=O)O
inactive: [18] 115 % of control | [19] 95 % of control | [20] 101 % of control

O=C/C(=C/Nc1ccc(C(=O)O)cc1)[N+](=O)[O-]
inactive: [18] 109 % of control | [19] 98 % of control | [20] 98 % of control

Cc1cc(C)[n+]([O-])c(C)c1[N+](=O)[O-]
inactive: dose: 100.0 mg/kg/injection, schedule: Q01DX001 (ip), vehicle: saline 101 % of control | dose: 200.0 mg/kg/injection, schedule: Q01DX001 (ip), vehicle: saline 101 % of control

O=C(O)CCC(=O)O.[Ag]
inactive: [21] 93 % of control | dose: 25.0 mg/kg/injection, schedule: Q01DX009 (ip), vehicle: acetone 86 % of control | [22] 95 % of control

O=C(Nc1c[nH]c(=O)[nH]c1=O)Oc1ccccc1
inactive: [6] 98 % of control | [12] 100 % of control | [7] 95 % of control | [13] 88 % of control | [8] 93 % of control | [14] 100 % of control

CON(C)S(=O)c1ccc([N+](=O)[O-])cc1 (centres undefined)
inactive: [12] 100 % of control | [13] 97 % of control | [14] 94 % of control

CC(=O)Oc1ccc(/C=C/c2ccncc2)cc1
inactive: [6] 97 % of control | [7] 100 % of control | [8] 104 % of control

COC(=O)c1ccccc1NC(=O)Nc1cccc(OC)c1
inactive: [18] 108 % of control | [19] 97 % of control | [20] 105 % of control

O=c1ccs[nH]1
inactive: [21] 106 % of control | [22] 98 % of control

COC(=O)C(Cc1ccccc1)NC(=O)C(C)NC(=O)OCc1ccccc1 (centres undefined)
inactive: [18] 105 % of control | dose: 130.0 mg/kg/injection, schedule: Q04DX002 (ip), vehicle: Klucel (hydroxypropylcellulose) (HPC) 100 % of control and 86 % of control | [19] 100 % of control | dose: 300.0 mg/kg/injection, schedule: Q04DX002 (ip), vehicle: Klucel (hydroxypropylcellulose) (HPC) 100 % of control and 103 % of control | [20] 108 % of control

CCCCCCCCCCCCCCCCN(C)c1ccc([N+](=O)[O-])cc1
inactive: [12] 94 % of control | [13] 96 % of control | [14] 96 % of control

COC(=O)CSC(=S)N(C)C
inactive: [15] 91 % of control | [16] 91 % of control | [17] 94 % of control

Nc1cc(/C=C/c2ccc(/C=C/c3ccc(S(=O)(=O)F)cc3)cc2)nc(N)n1
inactive: dose: 50.0 mg/kg/injection, schedule: Q01DX001 (ip), vehicle: saline with Tween-80 87 % of control | dose: 100.0 mg/kg/injection, schedule: Q01DX001 (ip), vehicle: saline with Tween-80 92 % of control

COc1cc2c(cc1OC)C(CC1=CCN3CCC4=C(C=CCC4)C3C1)NCC2 (centres undefined)
inactive: dose: 4.0 mg/kg/injection, schedule: Q04DX003 (ip), vehicle: water 106 % of control | dose: 8.0 mg/kg/injection, schedule: Q04DX003 (ip), vehicle: water 101 % of control | dose: 16.0 mg/kg/injection, schedule: Q04DX003 (ip), vehicle: water 102 % of control | dose: 32.0 mg/kg/injection, schedule: Q04DX003 (ip), vehicle: water 101 % of control | dose: 64.0 mg/kg/injection, schedule: Q04DX003 (ip), vehicle: water 112 % of control

CCOC(=O)CCN1CC(C)OC(C)C1 (centres undefined)
inactive: [1] 97 % of control | [9] 93 % of control | [23] 97 % of control | [10] 102 % of control | [2] 103 % of control | [11] 111 % of control

CCN(CC)C(N)=O
inactive: [1] 92 % of control | [9] 102 % of control | [23] 118 % of control | [10] 107 % of control | [2] 101 % of control | [11] 107 % of control

CCCCN(CCO)C(C#CC(C)(C)O)C(C)C (centres undefined)
inactive: [15] 95 % of control | [16] 101 % of control

Cc1ccc(NC(=S)N(CCC#N)C2CCCCC2)cc1C
inactive: [18] 97 % of control | [19] 90 % of control | [20] 90 % of control

CCOC(=O)CCCN(c1ccc(OC)c(OC)c1)S(=O)(=O)c1ccc(C)cc1
inactive: [3] 97 % of control | [4] 105 % of control | [5] 94 % of control

CCN(CC)CCOC(=O)C1CC1(c1ccccc1)c1ccccc1 (centres undefined)
inactive: dose: 25.0 mg/kg/injection, schedule: Q01DX009 (ip), vehicle: Klucel (hydroxypropylcellulose) (HPC) 98 % of control | dose: 50.0 mg/kg/injection, schedule: Q01DX009 (ip), vehicle: Klucel (hydroxypropylcellulose) (HPC) 87 % of control | [6] 95 % of control and 98 % of control

Cc1cc(=O)c(O)co1
inactive: [6] 98 % of control | [12] 101 % of control | [7] 93 % of control | [13] 101 % of control | [8] 93 % of control | [14] 101 % of control

O=Nc1[nH]c(O)c2ccccc12
inactive: [12] 97 % of control and 91 % of control | [13] 99 % of control and 103 % of control | [14] 103 % of control and 89 % of control
